# Results as given in EP4733761A1, “METHOD FOR SCREENING FOR PROTEINS ASSOCIATED WITH NEURODEGENERATIVE DISEASES AND THERAPEUTIC OR PROPHYLACTIC DRUGS FOR NEURODEGENERATIVE DISEASES” (priority 2023, dated 2026).
# Peptide text beside a SMILES is read from it. * marks the point of attachment. Dansyl = CN(C)c1cccc2c(S(=O)(=O)*)cccc12
# Columns and labels:
# Dnc-PR20/Kapβ2 = experiment: Screening for DPRs-Kapβ2 binding inhibitors with additives (probe fluorescence attenuation); design: species or system human; settings: Dnc-PR20 300 nM, Kapβ2 400 nM
# Description: A buffer solution (20 mM Tris-HCl (pH 7.5), 150 mM NaCl, and 2 mM DTT (final concentration)) was used to prepare a mixture of Dnc-PR20 (final concentration 300 nM) and Kapβ2 (final concentration 400 nM), and an automatic dispensing system (Andrew+, Andrew Alliance) was used to add 20 µL/well of each to a 384-well microplate (Corning, 3820). After incubation at 35°C for 10 min, the fluorescence intensity (fluorescence wavelength: 520 nm) and fluorescence spectrum (fluorescence wavelength: 400-700 nm) were measured at an excitation wavelength of 340 nm using a microplate reader (Cytation 5, BioTek). Then, 5 µL/well of various concentrations of additives (poly K50 or IgG/pure water) were added using an automated pipetting system, and after incubation at 35°C for 10 minutes, the fluorescence intensity and fluorescence spectrum were measured under the same conditions. As a control, the Dnc-PR20 solution without Kapβ2 was measured for fluorescence intensity and fluorescence spectrum in the same manner.
# In addition to poly K50 and IgG, the 520 nm fluorescence intensity of Dnc-PR20 was measured with PAMAM, GST-M9M, RanGTP, ATP, and HSA as additives, using the same procedure as in Section 6 above.
# Kapβ2 = experiment: Kapβ2-induced fluorescence change of dansyl-DPR probes; assay type: binding, human; settings: for fluorescence intensity / spectrum change on addition of Kapβ2: various Kapβ2 concentrations
# Description: (§1) A buffer solution (20 mM Tris-HCl (pH 7.5), 150 mM NaCl, and 2 mM DTT (final concentration)) was used to prepare the probe solutions (final concentration 300 nM) for probes 1 to 7 above. Each probe solution was added to a 384-well microplate (Corning, 3575) at 30 µL/well using an automated pipetting system (Andrew+, Andrew Alliance). After incubation at 35°C for 10 min, fluorescence intensity (fluorescence wavelength: 520 nm) and fluorescence spectrum (fluorescence wavelength: 400-700 nm) at an excitation wavelength of 340 nm were measured using a microplate reader (Cytation 5, BioTek). Then, various concentrations of Kapβ2 solution (Kapβ2/pure water) were added to the 384-well microplate at 30 µL/well using an automated pipetting system. After incubation at 35°C for 10 minutes, fluorescence intensity and fluorescence spectrum were measured under the same conditions as above.
# [1] = system: α1-antitrypsin, albumin (HSA), apotransferrin, lysozyme, immunoglobulin G (IgG); experiment: Fluorescence change of probes by various proteins: other control proteins; assay type: binding, human; chicken; settings: 1600 nM protein solutions; probe 300 nM
# Description: as §1
# (§2) The fluorescence intensity and fluorescence spectra of Dnc-PR20 (probe 1) and Dnc-GP20 (probe 2) were measured using the same procedure as described in Section 2 above, except that aqueous solutions (1600 nM) of bovine milk-derived β-lactoglobulin, human serum-derived α1-antitrypsin, human serum-derived albumin (HSA), human serum-derived apotransferrin, chicken egg white-derived lysozyme, or human serum-derived immunoglobulin G (IgG) were used in place of the Kapβ2 solution.
# β-lactoglobulin = experiment: Fluorescence change of probes by various proteins: β-lactoglobulin; assay type: binding, bovine; settings: for fluorescence spectrum / 540 nm fluorescence intensity change on addition of β-lactoglobulin: 1600 nM protein solution, probe 300 nM
# Description: as §1, §2
# MBP-FUS = experiment: FUS-induced fluorescence change of dansyl-DPR probes; assay type: binding, human; settings: for fluorescence intensity / spectrum change on addition of MBP-FUS: various MBP-FUS concentrations
# Description: as §1
# The same procedure as in Section 2 above was used, except that MBP-tagged FUS (MBP-FUS) solution (MBP-FUS/pure water) was used in place of the Kapβ2 solution, to measure the fluorescence intensity and fluorescence spectra of Dnc-PR20 (probe 1) and Dnc-GP20 (probe 2).
# Imb-2 = experiment: Fluorescence change of probes by LLPS-related proteins: Imb-2; assay type: binding, C. elegans; settings: Imb-2 solution 800 nM (Figure 8)
# Description: as §1
# (§3) In addition to the proteins tested in Sections 2 to 4 above, aqueous solutions of proteins that may be relevant to the formation or control of liquid-liquid phase separation (LLPS) were used to measure the 520 nm fluorescence intensity of Dnc-PR20 (probe 1) and Dnc-GP20 (probe 2). The following proteins were used as proteins that may be associated with the formation or regulation of LLPS were Imb-2, hnRNPA2LC, PPIA, Impα, Impβ, GST-M9M, and RanGTP. […]
# Impα = experiment: Fluorescence change of probes by LLPS-related proteins: Impα; assay type: binding, human; settings: Impα solution 1600 nM (Figure 8)
# Description: as §1, §3
# Impβ = experiment: Fluorescence change of probes by LLPS-related proteins: Impβ; assay type: binding, human; settings: Impβ solution 1600 nM (Figure 8)
# Description: as §1, §3
# [2] = probe 300 nM, excitation 340 nm
compound,measurement,setting,value
50-mer polylysine [poly K50],fluorescence intensity change of Dnc-PR20 in Dnc-PR20/Kapβ2 solution,Dnc-PR20/Kapβ2; additive 0-300 nM,decreased in a poly K50 concentration-dependent manner
same,additive concentration resulting in a fluorescence intensity comparable to that of the control,Dnc-PR20/Kapβ2; control = Dnc-PR20 solution without Kapβ2,200 nM
same,520 nm fluorescence intensity change of Dnc-PR20 in Dnc-PR20/Kapβ2 mixture,Dnc-PR20/Kapβ2; various additives (Figure 10),attenuated
"CN(C)c1cccc2c(S(=O)(=O)NCC(=O)N3CCC[C@H]3C(=O)NCC(=O)N3CCC[C@H]3C(=O)NCC(=O)N3CCC[C@H]3C(=O)NCC(=O)N3CCC[C@H]3C(=O)NCC(=O)N3CCC[C@H]3C(=O)NCC(=O)N3CCC[C@H]3C(=O)NCC(=O)N3CCC[C@H]3C(=O)NCC(=O)N3CCC[C@H]3C(=O)NCC(=O)N3CCC[C@H]3C(=O)NCC(=O)N3CCC[C@H]3C(=O)O)cccc12 [Dnc-GP10, Dansyl-NH-(Gly-Pro)10-COOH] (Dansyl-GPGPGPGPGPGPGPGPGPGP-OH)",fluorescence intensity / spectrum change on addition of Kapβ2,Kapβ2; [2],unchanged
"CN(C)c1cccc2c(S(=O)(=O)NCC(=O)N3CCC[C@H]3C(=O)NCC(=O)N3CCC[C@H]3C(=O)NCC(=O)N3CCC[C@H]3C(=O)NCC(=O)N3CCC[C@H]3C(=O)NCC(=O)N3CCC[C@H]3C(=O)NCC(=O)N3CCC[C@H]3C(=O)NCC(=O)N3CCC[C@H]3C(=O)NCC(=O)N3CCC[C@H]3C(=O)NCC(=O)N3CCC[C@H]3C(=O)NCC(=O)N3CCC[C@H]3C(=O)NCC(=O)N3CCC[C@H]3C(=O)NCC(=O)N3CCC[C@H]3C(=O)NCC(=O)N3CCC[C@H]3C(=O)NCC(=O)N3CCC[C@H]3C(=O)NCC(=O)N3CCC[C@H]3C(=O)NCC(=O)N3CCC[C@H]3C(=O)NCC(=O)N3CCC[C@H]3C(=O)NCC(=O)N3CCC[C@H]3C(=O)NCC(=O)N3CCC[C@H]3C(=O)NCC(=O)N3CCC[C@H]3C(=O)O)cccc12 [Dnc-GP20, Dansyl-NH-(Gly-Pro)20-COOH] (Dansyl-GPGPGPGPGPGPGPGPGPGPGPGPGPGPGPGPGPGPGPGP-OH)",fluorescence spectrum change on addition of the other proteins,[1],did not exhibit substantial changes
same,fluorescence intensity / spectrum change on addition of Kapβ2,Kapβ2; [2],little changed
same,fluorescence spectrum / 540 nm fluorescence intensity change on addition of β-lactoglobulin,β-lactoglobulin,did not exhibit substantial changes
same,fluorescence intensity / spectrum change on addition of MBP-FUS,MBP-FUS; [2],hardly changed
"CN(C)c1cccc2c(S(=O)(=O)NCC(=O)N[C@@H](CCCNC(=N)N)C(=O)NCC(=O)N[C@@H](CCCNC(=N)N)C(=O)NCC(=O)N[C@@H](CCCNC(=N)N)C(=O)NCC(=O)N[C@@H](CCCNC(=N)N)C(=O)NCC(=O)N[C@@H](CCCNC(=N)N)C(=O)NCC(=O)N[C@@H](CCCNC(=N)N)C(=O)NCC(=O)N[C@@H](CCCNC(=N)N)C(=O)NCC(=O)N[C@@H](CCCNC(=N)N)C(=O)NCC(=O)N[C@@H](CCCNC(=N)N)C(=O)NCC(=O)N[C@@H](CCCNC(=N)N)C(=O)O)cccc12 [Dnc-GR10, Dansyl-NH-(Gly-Arg)10-COOH] (Dansyl-GRGRGRGRGRGRGRGRGRGR-OH)",fluorescence intensity / spectrum change on addition of Kapβ2,Kapβ2; [2],increased in a Kapβ2 concentration-dependent manner
"C[C@H](NC(=O)[C@@H]1CCCN1C(=O)[C@H](C)NC(=O)[C@@H]1CCCN1C(=O)[C@H](C)NC(=O)[C@@H]1CCCN1C(=O)[C@H](C)NC(=O)[C@@H]1CCCN1C(=O)[C@H](C)NC(=O)[C@@H]1CCCN1C(=O)[C@H](C)NC(=O)[C@@H]1CCCN1C(=O)[C@H](C)NC(=O)[C@@H]1CCCN1C(=O)[C@H](C)NC(=O)[C@@H]1CCCN1C(=O)[C@H](C)NC(=O)[C@@H]1CCCN1C(=O)[C@H](C)NC(=O)[C@@H]1CCCN1S(=O)(=O)c1cccc2c(N(C)C)cccc12)C(=O)O [Dnc-PA10, Dansyl-NH-(Pro-Ala)10-COOH] (Dansyl-PAPAPAPAPAPAPAPAPAPA-OH)",fluorescence intensity / spectrum change on addition of Kapβ2,Kapβ2; [2],unchanged
"CN(C)c1cccc2c(S(=O)(=O)N3CCC[C@H]3C(=O)N[C@@H](CCCNC(=N)N)C(=O)N3CCC[C@H]3C(=O)N[C@@H](CCCNC(=N)N)C(=O)N3CCC[C@H]3C(=O)N[C@@H](CCCNC(=N)N)C(=O)N3CCC[C@H]3C(=O)N[C@@H](CCCNC(=N)N)C(=O)N3CCC[C@H]3C(=O)N[C@@H](CCCNC(=N)N)C(=O)N3CCC[C@H]3C(=O)N[C@@H](CCCNC(=N)N)C(=O)N3CCC[C@H]3C(=O)N[C@@H](CCCNC(=N)N)C(=O)N3CCC[C@H]3C(=O)N[C@@H](CCCNC(=N)N)C(=O)N3CCC[C@H]3C(=O)N[C@@H](CCCNC(=N)N)C(=O)N3CCC[C@H]3C(=O)N[C@@H](CCCNC(=N)N)C(=O)O)cccc12 [Dnc-PR10, Dansyl-NH-(Pro-Arg)10-COOH] (Dansyl-PRPRPRPRPRPRPRPRPRPR-OH)",fluorescence intensity / spectrum change on addition of Kapβ2,Kapβ2; [2],increased in a Kapβ2 concentration-dependent manner
"CN(C)c1cccc2c(S(=O)(=O)N3CCC[C@H]3C(=O)N[C@@H](CCCNC(=N)N)C(=O)N3CCC[C@H]3C(=O)N[C@@H](CCCNC(=N)N)C(=O)N3CCC[C@H]3C(=O)N[C@@H](CCCNC(=N)N)C(=O)N3CCC[C@H]3C(=O)N[C@@H](CCCNC(=N)N)C(=O)N3CCC[C@H]3C(=O)N[C@@H](CCCNC(=N)N)C(=O)N3CCC[C@H]3C(=O)N[C@@H](CCCNC(=N)N)C(=O)N3CCC[C@H]3C(=O)N[C@@H](CCCNC(=N)N)C(=O)N3CCC[C@H]3C(=O)N[C@@H](CCCNC(=N)N)C(=O)N3CCC[C@H]3C(=O)N[C@@H](CCCNC(=N)N)C(=O)N3CCC[C@H]3C(=O)N[C@@H](CCCNC(=N)N)C(=O)N3CCC[C@H]3C(=O)N[C@@H](CCCNC(=N)N)C(=O)N3CCC[C@H]3C(=O)N[C@@H](CCCNC(=N)N)C(=O)N3CCC[C@H]3C(=O)N[C@@H](CCCNC(=N)N)C(=O)N3CCC[C@H]3C(=O)N[C@@H](CCCNC(=N)N)C(=O)N3CCC[C@H]3C(=O)N[C@@H](CCCNC(=N)N)C(=O)N3CCC[C@H]3C(=O)N[C@@H](CCCNC(=N)N)C(=O)N3CCC[C@H]3C(=O)N[C@@H](CCCNC(=N)N)C(=O)N3CCC[C@H]3C(=O)N[C@@H](CCCNC(=N)N)C(=O)N3CCC[C@H]3C(=O)N[C@@H](CCCNC(=N)N)C(=O)N3CCC[C@H]3C(=O)N[C@@H](CCCNC(=N)N)C(=O)O)cccc12 [Dnc-PR20, Dansyl-NH-(Pro-Arg)20-COOH] (Dansyl-PRPRPRPRPRPRPRPRPRPRPRPRPRPRPRPRPRPRPRPR-OH)",fluorescence spectrum change on addition of the other proteins,[1],did not exhibit substantial changes
same,540 nm fluorescence intensity increase compared to the fluorescence intensity at 0 nM Kapβ2,"Kapβ2; 1600 nM Kapβ2, probe 300 nM, excitation 340 nm",approximately 6.1 fold
same,520 nm fluorescence,Kapβ2; Kapβ2 solution 1600 nM (Figure 8),above 1000
same,fluorescence intensity / spectrum change on addition of Kapβ2,Kapβ2; [2],increased in a Kapβ2 concentration-dependent manner
same,520 nm fluorescence,Imb-2,above 1000
same,fluorescence spectrum / 540 nm fluorescence intensity change on addition of β-lactoglobulin,β-lactoglobulin,slightly increased
same,520 nm fluorescence,β-lactoglobulin; β-lactoglobulin solution 1600 nM (Figure 8),above 1000
same,520 nm fluorescence,Impα,above 1000
same,520 nm fluorescence,Impβ,above 1000
same,540 nm fluorescence intensity increase compared to the fluorescence intensity at 0 nM MBP-FUS,"MBP-FUS; 1600 nM MBP-FUS, probe 300 nM, excitation 340 nm",approximately 4.6 fold
same,520 nm fluorescence,MBP-FUS; MBP-FUS solution 1600 nM (Figure 8),above 1000
same,fluorescence intensity / spectrum change on addition of MBP-FUS,MBP-FUS; [2],increased in an MBP-FUS concentration-dependent manner
Dansyl-NH-(Gly-Ala)19-COOH (Dansyl-GAGAGAGAGAGAGAGAGAGA-OH) [Dnc-GA10],fluorescence intensity / spectrum change on addition of Kapβ2,Kapβ2; [2],unchanged
